± gives the expanded uncertainty stated by the source.
What was measured:
[1] = xn = mol fraction of the nth substance listed; settings: Fluid (supercritical or subcritical phases), Constant-volume piezometry, x2 = 0
[2] = Fluid (supercritical or subcritical phases), Constant-volume piezometry

Compound `O` [water] + N has a mass density ([1]; 270.15 K, 4074.2 kPa) of 1001.55 ± 0.22 kg/m3, a mass density ([1]; 271.17 K, 3818.6 kPa) of 1001.52 ± 0.22 kg/m3 and a mass density ([1]; 272.04 K, 5219 kPa) of 1002.3 ± 0.22 kg/m3. For the same compound, the mass density ([1]; 272.13 K, 3596.6 kPa) was 1001.49 ± 0.22 kg/m3, the mass density ([1]; 273.1 K, 3402.1 kPa) was 1001.46 ± 0.21 kg/m3 and the mass density ([1]; 273.15 K, 5009.6 kPa) was 1002.26 ± 0.22 kg/m3. For the same compound, the mass density ([1]; 274.12 K, 13437 kPa) was 1006.52 ± 0.25 kg/m3, the mass density ([1]; 274.15 K, 3220.1 kPa) was 1001.42 ± 0.21 kg/m3 and the mass density ([1]; 274.15 K, 4843.5 kPa) was 1002.23 ± 0.22 kg/m3. It also gave a mass density ([1]; 275.15 K, 4716.5 kPa) of 1002.19 ± 0.22 kg/m3, a mass density ([1]; 275.16 K, 3074.5 kPa) of 1001.39 ± 0.21 kg/m3 and a mass density ([1]; 275.18 K, 13355 kPa) of 1006.48 ± 0.25 kg/m3. The mass density ([1]; 276.12 K, 4614.4 kPa) was 1002.16 ± 0.22 kg/m3, the mass density ([1]; 276.16 K, 13306 kPa) was 1006.44 ± 0.25 kg/m3 and the mass density ([1]; 276.17 K, 2960.4 kPa) was 1001.35 ± 0.21 kg/m3. It also gave a mass density ([1]; 276.18 K, 13305 kPa) of 1006.44 ± 0.25 kg/m3, a mass density ([1]; 277.15 K, 2875.8 kPa) of 1001.32 ± 0.21 kg/m3 and a mass density ([1]; 277.15 K, 4535.3 kPa) of 1002.12 ± 0.22 kg/m3. The mass density ([1]; 277.16 K, 13282 kPa) was 1006.4 ± 0.25 kg/m3, the mass density ([1]; 278.13 K, 4490.8 kPa) was 1002.08 ± 0.22 kg/m3 and the mass density ([1]; 278.16 K, 2819.8 kPa) was 1001.27 ± 0.21 kg/m3. The mass density ([1]; 278.16 K, 13288 kPa) was 1006.35 ± 0.25 kg/m3, the mass density ([1]; 279.1 K, 4468.4 kPa) was 1002.03 ± 0.22 kg/m3 and the mass density ([1]; 279.16 K, 2790.3 kPa) was 1001.23 ± 0.21 kg/m3. For the same compound, the mass density ([1]; 279.17 K, 13328 kPa) was 1006.3 ± 0.25 kg/m3, the mass density ([1]; 280.1 K, 4469.1 kPa) was 1001.99 ± 0.22 kg/m3 and the mass density ([1]; 280.17 K, 13374 kPa) was 1006.26 ± 0.25 kg/m3. It also gave a mass density ([1]; 281.08 K, 2807.6 kPa) of 1001.14 ± 0.22 kg/m3, a mass density ([1]; 281.14 K, 4509 kPa) of 1001.94 ± 0.22 kg/m3 and a mass density ([1]; 281.17 K, 13456 kPa) of 1006.21 ± 0.25 kg/m3. The mass density ([1]; 282.13 K, 13562 kPa) was 1006.16 ± 0.25 kg/m3, the mass density ([1]; 283.15 K, 4649.5 kPa) was 1001.84 ± 0.22 kg/m3 and the mass density ([1]; 283.18 K, 13665 kPa) was 1006.11 ± 0.25 kg/m3. For the same compound, the mass density ([1]; 285.14 K, 13994 kPa) was 1006.01 ± 0.26 kg/m3, the mass density ([1]; 286.05 K, 5038.7 kPa) was 1001.69 ± 0.22 kg/m3 and the mass density ([1]; 288.15 K, 14714 kPa) was 1005.84 ± 0.26 kg/m3. It also gave a mass density ([1]; 289.17 K, 5677.6 kPa) of 1001.51 ± 0.23 kg/m3, a mass density ([1]; 292.12 K, 6505.6 kPa) of 1001.33 ± 0.23 kg/m3 and a mass density ([1]; 296.13 K, 7938.8 kPa) of 1001.06 ± 0.24 kg/m3. It also gave a mass density ([1]; 300.13 K, 9714.8 kPa) of 1000.78 ± 0.24 kg/m3, a mass density ([1]; 305.19 K, 12424 kPa) of 1000.41 ± 0.26 kg/m3 and a mass density ([1]; 308.16 K, 14234 kPa) of 1000.19 ± 0.27 kg/m3.

In the case of `O` [water], the mass density ([2]; 270.15 K, 4074.2 kPa) is reported as 1001.55 ± 0.22 kg/m3, the mass density ([2]; 271.17 K, 3818.6 kPa) is reported as 1001.52 ± 0.22 kg/m3 and the mass density ([2]; 272.04 K, 5219 kPa) is reported as 1002.3 ± 0.22 kg/m3. The mass density ([2]; 272.13 K, 3596.6 kPa) was 1001.49 ± 0.22 kg/m3, the mass density ([2]; 273.1 K, 3402.1 kPa) was 1001.46 ± 0.21 kg/m3 and the mass density ([2]; 273.15 K, 5009.6 kPa) was 1002.26 ± 0.22 kg/m3. The mass density ([2]; 274.12 K, 13437 kPa) was 1006.52 ± 0.25 kg/m3, the mass density ([2]; 274.15 K, 3220.1 kPa) was 1001.42 ± 0.21 kg/m3 and the mass density ([2]; 274.15 K, 4843.5 kPa) was 1002.23 ± 0.22 kg/m3. The mass density ([2]; 275.15 K, 4716.5 kPa) was 1002.19 ± 0.22 kg/m3, the mass density ([2]; 275.16 K, 3074.5 kPa) was 1001.39 ± 0.21 kg/m3 and the mass density ([2]; 275.18 K, 13355 kPa) was 1006.48 ± 0.25 kg/m3. For the same compound, the mass density ([2]; 276.12 K, 4614.4 kPa) was 1002.16 ± 0.22 kg/m3, the mass density ([2]; 276.16 K, 13306 kPa) was 1006.44 ± 0.25 kg/m3 and the mass density ([2]; 276.17 K, 2960.4 kPa) was 1001.35 ± 0.21 kg/m3. For the same compound, the mass density ([2]; 276.18 K, 13305 kPa) was 1006.44 ± 0.25 kg/m3, the mass density ([2]; 277.15 K, 2875.8 kPa) was 1001.32 ± 0.21 kg/m3 and the mass density ([2]; 277.15 K, 4535.3 kPa) was 1002.12 ± 0.22 kg/m3. For the same compound, the mass density ([2]; 277.16 K, 13282 kPa) was 1006.4 ± 0.25 kg/m3, the mass density ([2]; 278.13 K, 4490.8 kPa) was 1002.08 ± 0.22 kg/m3 and the mass density ([2]; 278.16 K, 2819.8 kPa) was 1001.27 ± 0.21 kg/m3. It also gave a mass density ([2]; 278.16 K, 13288 kPa) of 1006.35 ± 0.25 kg/m3, a mass density ([2]; 279.1 K, 4468.4 kPa) of 1002.03 ± 0.22 kg/m3 and a mass density ([2]; 279.16 K, 2790.3 kPa) of 1001.23 ± 0.21 kg/m3. It also gave a mass density ([2]; 279.17 K, 13328 kPa) of 1006.3 ± 0.25 kg/m3, a mass density ([2]; 280.1 K, 4469.1 kPa) of 1001.99 ± 0.22 kg/m3 and a mass density ([2]; 280.17 K, 13374 kPa) of 1006.26 ± 0.25 kg/m3. For the same compound, the mass density ([2]; 281.08 K, 2807.6 kPa) was 1001.14 ± 0.22 kg/m3, the mass density ([2]; 281.14 K, 4509 kPa) was 1001.94 ± 0.22 kg/m3 and the mass density ([2]; 281.17 K, 13456 kPa) was 1006.21 ± 0.25 kg/m3. It also gave a mass density ([2]; 282.13 K, 13562 kPa) of 1006.16 ± 0.25 kg/m3, a mass density ([2]; 283.15 K, 4649.5 kPa) of 1001.84 ± 0.22 kg/m3 and a mass density ([2]; 283.18 K, 13665 kPa) of 1006.11 ± 0.25 kg/m3. The mass density ([2]; 285.14 K, 13994 kPa) was 1006.01 ± 0.26 kg/m3, the mass density ([2]; 286.05 K, 5038.7 kPa) was 1001.69 ± 0.22 kg/m3 and the mass density ([2]; 288.15 K, 14714 kPa) was 1005.84 ± 0.26 kg/m3. The mass density ([2]; 289.17 K, 5677.6 kPa) was 1001.51 ± 0.23 kg/m3, the mass density ([2]; 292.12 K, 6505.6 kPa) was 1001.33 ± 0.23 kg/m3 and the mass density ([2]; 296.13 K, 7938.8 kPa) was 1001.06 ± 0.24 kg/m3. The mass density ([2]; 300.13 K, 9714.8 kPa) was 1000.78 ± 0.24 kg/m3, the mass density ([2]; 305.19 K, 12424 kPa) was 1000.41 ± 0.26 kg/m3 and the mass density ([2]; 308.16 K, 14234 kPa) was 1000.19 ± 0.27 kg/m3.

Source: the NIST ThermoML archive (doi:10.1007/s10765-005-8590-7)
